Measured values taken from patent US7842471B2, “Ultra sensitive biosensor for detecting bio-signal transmitters, and detector and detecting method using the same” (priority 2007, dated 2010).

Legend:
[1] = tested on: cultured cortical astrocytes; experiment: sniffer-patch detection of glutamate release from cultured wild-type astrocytes with GluR1(L497Y)-transfected HEK cells; type: cell-based, mice; details: for inward current in HEK cells expressing GluR1(L497Y): brief (<1 sec) pressure application, 500 μM TFLLR, 300 μM ATP, 180 μM bradykinin, wild-type astrocytes
Procedure: (§1) HEK 293 cells were transfected with a 1:3.5 ratio of GFP and GluR1(L497Y) using the calcium phosphate method using effectence for 6-8 hours, after which the media was replaced and supplemented with 1 mM kynurenic acid and 10 μM N-(4-hydroxyphenylpropanoyl) spermine or 10 μM CNQX. The transfected HEK cells were subsequently trypsinized and replated onto astrocyte feeder layers derived from either wild-type or PAR1−/− mice 24 hours post-transfection, and recordings were performed 24 hours after replating. The prepared transfectant was used as a biosensor in the following examples.
In this experimental example, the glutamate release from astrocytes was quantitatively evaluated in real time by a “sniffer-patch” detection system. […] The “sniffer-patch” method was performed according to “T. G. J. Allen, Trends Neurosci., Vol. 20, No. 5 pp. […], 1997”, unless there is different mention thereto.
Cultured astrocytes were prepared from P0-P3 postnatal mice obtained from KIST SPF. The cerebral cortex was dissected free of adherent meninges, minced, and dissociated into single cell suspension by trituration through a Pasteur pipette. All procedures involving the use of animals were reviewed and approved by the Emory University IACUC. Dissociated cells were plated onto either 12 mm glass coverslips or 6 well plates coated with 0.1 mg/ml poly-D-lysine. Cells were grown in DMEM media (Gibco, cat# 11960-044) supplemented with 25 mM glucose, 10% heat-inactivated horse serum, and 10% heat-inactivated fetal bovine serum, 2 mM glutamine, and 1000 units/ml penicillin-streptomycin. Cultures were maintained at 37° C. in a humidified 5% CO2-containing atmosphere. Astrocyte cultures prepared in this way were previously determined by GFAP (glial fibrillary acidic protein) staining to be greater than 95% astrocytes (Nicole et al., 2005). In some experiments, the culture media was replaced 24 hours after plating with DMEM with all added components except glutamine, and cultures were maintained for 4 days before experimentation in glutamine-free media.
Thus, this technique provides millisecond time resolution for the detection of micromolar levels of glutamate released from astrocytes.
(§2) GluR1(L497Y)-transfected HEK cells were directly plated onto an astrocyte monolayer, and subsequently the whole cell HEK current response under voltage clamp during brief 0.2 sec application of the PAR1 activator TFLLR (500 μM), ATP (300 μM), or bradykinin (180 μM), respectively, from a pressurized pipette was recorded (FIGS. 1a, and 1b).

[2] = tested on: wild-type astrocytes; experiment: Fura-2 Ca2+ imaging in wild-type astrocytes; type: cell-based, mice; details: brief (<1 sec) pressure application; 500 μM TFLLR, 300 μM ATP, 180 μM bradykinin; Fura-2-AM
Procedure: (§3) FIG. 1a is a schematic illustrating experimental setup and a GFP fluorescent image of astrocyte—GluR1(L497Y)/GFP transfected HEK cell co-culture (upper left panel). […] The Fura2-AM loading was performed by incubating with 5 μM Fura2-AM in 1 μM pluronic acid (Molecular Probes) for 30 min at room temperature. The calibration bar is 20 μm.

[3] = tested on: cultured neurons; experiment: glutamate release from cultured neurons detected with GluR1(L497Y)-transfected HEK cells; type: cell-based
Procedure: To verify this prediction, effects of a hyperosmotic solution on the glutamate-release from cultured neurons and astrocytes were evaluated and are shown in FIGS. 3a to 3c.
The detection is abolished by the treatment of 10 μM CNQX. The right panel is the summary of the current amplitude changes; *p<0.05; paired t-test (n=6).
That is, a brief application of TFLLR caused no detectable glutamate-induced current in GluR1(L497Y)-transfected HEK cells adjacent to neurons.

[4] = tested on: NR1-1a/NR2A2D; experiment: D-serine or glycine release from astrocytes detected with NR1-1a/NR2A2D-transfected HEK cells; type: cell-based; details: 100 uM glutamate + 10 uM DCKA vs 100 uM glutamate alone; 500 uM TFLLR
Procedure: HEK 293 cells were transfected NR1-1a and NR2A2D at a ratio of 1:2 by using the calcium phosphate method using effectence for 6-8 hours, after which the media was replaced and supplemented with 5 mM magnesium chloride and 10 μM D-2-amino-phosphonopentanoic acid or 10 μM D-AP5. The transfected HEK cells were subsequently trypsinized and replated onto astrocyte feeder layers derived from wild-type 24 hours post-transfection, and recordings performed 24 hours after replating. The prepared transfectant was used as a biosensor in the following examples.
To activate the NMDA receptor, it is necessary for the two subunits to bind to the corresponding binding materials, respectively. The activation may be confirmed by measuring intracellular inward current.
In this example, the media was supplemented with sufficient glutamate to saturate the glutamate domain. The intracellular inward current in the biosensor prepared in Example 5, under the conditions with or without treating a glycine binding domain blocker, DCKA, which artificially makes a glycine-free or D-serine-free condition, to examine the glycine or D-serine detecting ability of the biosensor.

[5] = biological target: T1, GluR1(L497Y) (Rattus norvegicus, UniProt P19490, L497Y); experiment: glutamate activation of GluR1(L497Y) current in transfected HEK cells (dose response); type: cell-based
T1 construct: expressed in transfected cells; host or cells: HEK 293 cells (ATCC1573)
Procedure: as §1

[6] = tested on: PAR1-/- astrocytes; experiment: sniffer-patch detection of glutamate release from PAR1-/- astrocytes with GluR1(L497Y)-transfected HEK cells; type: cell-based, mice
Procedure: as §1, §2

[7] = tested on: HEK cells; experiment: Ca2+-sensitive dye imaging in HEK cells (endogenous PAR1); type: cell-based; details: TFLLR application, co-culture on PAR1-/- astrocytes
Procedure: as §3
(§4) These control experiments were performed on the same day as TFLLR stimulation of HEK cells on wild-type astrocytes, and confirm that PAR1 activators had no direct effect on GluR1(L497Y) currents in HEK cells.

[8] = tested on: PAR1-/- astrocytes; experiment: Ca2+-sensitive dye imaging in PAR1-/- astrocytes; type: cell-based, mice; details: TFLLR application
Procedure: as §3, §4

[9] = tested on: acutely dissociated CA1 astrocytes; experiment: glutamate release from acutely dissociated CA1 hippocampal astrocytes detected with GluR1(L497Y)-transfected HEK cells; type: cell-based, mice; details: brief (1 sec) application of TFLLR; n=4
Source text: Cells were acutely dissociated from the CA1 region of hippocampal slices prepared from transgenic mice (Jackson Laboratories) expressing GFP under control of the GFAP promoter (Brenner et al., 1994), allowing to unambiguously identify isolated hippocampal astrocytes that had not been subject to tissue culture. Cells were dissociated directly onto GluR1(L497Y)-transfected HEK cells obtained in Example 1.

T1 sequence (P19490 19-907 L497Y): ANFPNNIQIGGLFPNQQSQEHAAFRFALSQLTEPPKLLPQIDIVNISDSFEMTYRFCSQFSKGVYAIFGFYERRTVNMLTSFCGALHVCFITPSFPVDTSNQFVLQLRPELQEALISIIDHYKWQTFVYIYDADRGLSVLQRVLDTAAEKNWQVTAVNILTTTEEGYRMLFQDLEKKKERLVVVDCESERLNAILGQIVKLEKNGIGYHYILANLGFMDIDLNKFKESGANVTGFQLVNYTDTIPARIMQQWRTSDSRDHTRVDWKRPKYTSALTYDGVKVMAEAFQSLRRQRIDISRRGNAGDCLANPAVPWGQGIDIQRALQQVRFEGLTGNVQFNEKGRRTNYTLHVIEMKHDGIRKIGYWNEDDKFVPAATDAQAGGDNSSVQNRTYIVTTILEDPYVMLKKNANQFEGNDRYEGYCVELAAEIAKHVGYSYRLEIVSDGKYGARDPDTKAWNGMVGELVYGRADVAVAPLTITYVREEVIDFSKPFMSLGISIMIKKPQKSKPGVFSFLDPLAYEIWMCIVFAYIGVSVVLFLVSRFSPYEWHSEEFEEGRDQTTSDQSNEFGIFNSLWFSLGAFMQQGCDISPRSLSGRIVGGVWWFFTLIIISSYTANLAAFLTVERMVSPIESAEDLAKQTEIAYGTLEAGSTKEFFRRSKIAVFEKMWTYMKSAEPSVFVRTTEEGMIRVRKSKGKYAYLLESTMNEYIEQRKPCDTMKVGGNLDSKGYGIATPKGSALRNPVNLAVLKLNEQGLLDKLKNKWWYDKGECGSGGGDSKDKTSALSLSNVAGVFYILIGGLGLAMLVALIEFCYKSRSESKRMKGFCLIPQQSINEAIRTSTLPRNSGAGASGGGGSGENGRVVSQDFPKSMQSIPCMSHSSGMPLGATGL

Compound: Nc1ncnc2c1ncn2[C@@H]1O[C@H](COP(=O)(O)OP(=O)(O)OP(=O)(O)O)[C@@H](O)[C@H]1O [ATP]
- inward current in HEK cells expressing GluR1(L497Y) [1]: elicited an inward current
- astrocytic intracellular Ca2+ [2]: increased

Compound: N#Cc1cc2[nH]c(=O)c(=O)[nH]c2cc1[N+](=O)[O-] [CNQX]
- effect on inward currents evoked by TFLLR ([1]; CNQX 10 μM, glutamine-free medium): completely abolished
- effect on detection of neuronal glutamate release evoked by hyperosmotic solution ([3]; 10 μM CNQX, hyperosmotic solution 530 mosmol): abolished

Compound: O=C(O)c1cc(=O)c2c(Cl)cc(Cl)cc2[nH]1 [DCKA, 5,7-dichlorokynurenic acid]
- inward current value after treating TFLLR [4]: considerably decreased

Compound: N[C@@H](CCC(=O)O)C(=O)O [glutamate]
- Hill slope [5]: 1.3

Compound: TFLLR
- peak (maximum) glutamate concentration ([6]; PAR1-/- astrocyte cultures, TFLLR application, converted from current by Formula 1): 0.23 ± 0.13 µM
- glutamate evoked current (%) ([6]; percent of maximal response, applied to PAR1-/- astrocytes): 1.4±0.9%
- HEK cell intracellular Ca2+ [7]: did increase
- current response, % of the maximal response ([1]; astrocytes cultured in the absence of glutamine, TFLLR 500 μM, n=4): 9.7 ± 1.3%
- inward current in HEK cells expressing GluR1(L497Y) [1]: elicited an inward current
- glutamate evoked current (%) ([1]; percent of maximal response, applied to wild-type astrocytes, glutamine-containing medium, TFLLR 500 μM in pipette): 10±2.6%
- glutamate-induced current in GluR1(L497Y) HEK cells on astrocytes ([1]; same-day positive control, TFLLR or hyperosmotic solution, n=4): 136±35 pA
- peak (maximum) glutamate concentration ([1]; wild-type astrocyte cultures, TFLLR application, converted from current by Formula 1): 1.1 ± 0.24 µM
- PAR1-/- astrocytic intracellular Ca2+ [8]: did not alter
- astrocytic intracellular Ca2+ [2]: increased
- glutamate-induced current in GluR1(L497Y) HEK cells adjacent to neurons ([3]; 30 μM TFLLR or hyperosmotic solution, n=3): 3.0±0.1 pA
- glutamate release (concentration) evoked by TFLLR [9]: 1.46 ± 0.54 µM
